Read-outs that look alike come from different tables or passages of the source. Where only a bound is given, the exact number is not on record here.

For data set [1], the system named is A/H5N1 pseudovirus. As to conditions: read-out: EC50 against A/H5N1 pseudovirus; cited from earlier work.
For data set [2], the system named is A/H5N1 virus. As to conditions: read-out: EC50 against A/H5N1 virus; cited from earlier work.
A short description of data set [3]: in vitro. To be noted: dog.
The test system of data set [4] is H1 HA protein (strain A/California/06/09). In kind it is biochemical, influenza A virus. As to conditions: pH 5.2.
Data set [5] relates to A/H1N1 virus. In words: microbe, parasite or virus in culture. In kind it is cell-based, influenza A virus. To be noted: Influenza A virus, H1N1, MDCK, read-out: Antiviral EC50 against A/H1N1 virus.
In data set [6] the target is H1 HA (Influenza A virus, UniProt C3W5S1). As to the kind of experiment: cell-based.
Sequence of H1 HA (C3W5S1 18-344 limits assumed): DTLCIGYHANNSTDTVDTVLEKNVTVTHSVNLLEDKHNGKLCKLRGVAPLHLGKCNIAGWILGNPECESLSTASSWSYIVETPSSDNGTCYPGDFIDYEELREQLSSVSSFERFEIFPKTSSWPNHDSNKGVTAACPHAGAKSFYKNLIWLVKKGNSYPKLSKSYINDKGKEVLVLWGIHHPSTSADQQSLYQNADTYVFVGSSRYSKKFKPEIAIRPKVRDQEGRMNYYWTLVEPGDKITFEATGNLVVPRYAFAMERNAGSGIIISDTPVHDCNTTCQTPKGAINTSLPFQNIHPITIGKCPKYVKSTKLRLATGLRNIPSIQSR
Sequence of H1 HA (C3W5S1 345-566 limits assumed): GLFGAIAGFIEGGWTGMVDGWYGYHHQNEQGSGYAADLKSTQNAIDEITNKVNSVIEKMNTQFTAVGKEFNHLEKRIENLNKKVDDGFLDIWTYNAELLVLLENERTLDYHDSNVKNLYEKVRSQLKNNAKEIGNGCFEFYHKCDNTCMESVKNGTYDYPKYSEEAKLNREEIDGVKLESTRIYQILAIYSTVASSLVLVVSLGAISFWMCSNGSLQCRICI
Data set [7] deals with MDCK cells. To be noted: dog.
Data set [8] has as its system A/H5N1 (FL22, A/bald eagle/FL/W22-114/2022) pseudovirus. As to the kind of experiment: organism not typed. To be noted: MDCK, 72 h, read-out: EC50 for A/H5N1 (FL22) pseudovirus entry. In kind it is cell-based, influenza A virus.
The test system of data set [9] is A/H1N1 virus Virg09 in Calu-3 cells. In words: microbe, parasite or virus in culture. It counts as cell-based. To be noted: Influenza A virus, H1N1, Calu-3, 72 h, read-out: EC50 in Calu-3 cells infected with Virg09.
For data set [10], the system named is A/H1N1 (Virg09) pseudovirus. In words: organism not typed. In kind it is cell-based, influenza A virus.
The subject of data set [11] is A/H1N1 virus A/PR/8/34 (PR8). In words: microbe, parasite or virus in culture. In kind it is cell-based. As to conditions: Influenza A virus, MDCK.
For data set [12], the system named is A/H1N1 virus A/Virginia/ATCC3/2009 (Virg09). In words: microbe, parasite or virus in culture. In kind it is cell-based, influenza A virus. To be noted: Influenza A virus, MDCK.
The subject of data set [13] is H5 HA (strain A/duck/Hunan/795/2002). In kind it is cell-based, influenza A virus.

Turning to `O=C(NCCc1cccs1)c1cc(F)cc(C(F)(F)F)c1` [Compound 20], in data set [1], the EC50 was 220 nM.
Consider `Cc1cc(CNS(=O)(=O)c2ccc(C#N)cc2)c(C)s1` [Compound 21], for which, in [2], the EC50 is 470 nM.
In data set [3], `CC(C)c1ccccc1NCCN1CCCCC1` [RL-007, reference compound] gave a CC50 of 33000 ± 5000 nM. Besides, the “Binding of H1 HA to stem antibody C179 after acidic incubation (pH 5.2) in presence of compound” value in data set [4] is given as “remained significantly higher”. Moreover, the EC50 in data set [5] is 600 to 1500 nM; in data set [6] it was 4100 nM; in data set [8] it was 10000 nM; in data set [9], 530 nM; in [10] (MDCK, 72 h, read-out: EC50 for A/H1N1 (Virg09) pseudovirus entry), 79 nM; in data set [11] (read-out: Antiviral EC50 against A/H1N1 virus, PR8 strain, MTS), 1400 nM. Besides, the EC50 in [11] (read-out: Antiviral EC50 against A/H1N1 virus, PR8 strain, Microscopy) came out at 1500 ± 100 nM; in [12] (read-out: Antiviral EC50 against A/H1N1 virus, Virg09 strain, MTS), 610 ± 60 nM; in data set [12] (read-out: Antiviral EC50 against A/H1N1 virus, Virg09 strain, Microscopy) it was 690 ± 90 nM. Moreover, the “Cytotoxicity MCC, Microscopy” value in data set [7] is more than 40 µM. Also, the “Fold higher activity against A/H1N1 than A/H5N1 pseudovirus” value in [10] was approximately 127 fold. Besides, the “Inhibition of H5 HA cell-cell fusion at 6.3 μM” value in [13] was “inactive”. For the same molecule, the “Inhibition of H5 HA cell-cell fusion at 25 μM” value in [13] was “partially effective”. In data set [13], the “Inhibition of H5 HA cell-cell fusion at 100 μM” value is given as “complete inhibition”.

The values above are taken from article PMC12434670 (Journal of Medicinal Chemistry, 2025).
